In the supplement of paper PMC4862054:

Key:
Experiment in all cases: normalised response (% of control), CellTiter-Glo; higher = more viable cells (100 = DMSO, 0 = benzethonium chloride kill control)
Conditions in all cases: incubation time: 72 h
BT-474 = tested on: BT-474
Procedure, shortened: (§1)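 CellTox Green fluorescence (485/520 nm) and, after 10 min at room temperature, CellTiter-Glo luminescence were read from breast cancer cell lines incubated 72 h in 384-well plates. Cells were seeded as 20 µl suspension onto compound at 5 concentrations in 10-fold steps over a 10,000-fold range chosen per compound. Each plate was normalised to 0.1 % DMSO (100) and a positive kill control (0). Values are normalised signals, one per concentration.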

BT-549 = tested on: BT-549
Procedure, shortened: as §1

CAL-120 = tested on: CAL-120
Procedure, shortened: as §1

CAL-148 = tested on: CAL-148
Procedure, shortened: as §1

CAL-51 = tested on: CAL-51
Procedure, shortened: as §1

CAL-85-1 = tested on: CAL-85-1
Procedure, shortened: as §1

DU-4475 = tested on: DU-4475
Procedure, shortened: as §1

HCC1143 = tested on: HCC1143
Procedure, shortened: as §1

HCC1599 = tested on: HCC1599
Procedure, shortened: as §1

HCC1937 = tested on: HCC1937
Procedure, shortened: as §1

HDQ-P1 = tested on: HDQ-P1
Procedure, shortened: as §1

Hs578T = tested on: Hs578T
Procedure, shortened: as §1

MCF-10A = tested on: MCF-10A
Procedure, shortened: as §1

MDA-MB-231 = tested on: MDA-MB-231
Procedure, shortened: as §1

MDA-MB-436 = tested on: MDA-MB-436
Procedure, shortened: as §1

MDA-MB-453 = tested on: MDA-MB-453
Procedure, shortened: as §1

MDA-MB-468 = tested on: MDA-MB-468
Procedure, shortened: as §1

MFM-223 = tested on: MFM-223
Procedure, shortened: as §1

SK-BR-3 = tested on: SK-BR-3
Procedure, shortened: as §1

SMILES	normalised response (BT-474) [%]	normalised response (BT-549) [%]	normalised response (CAL-120) [%]	normalised response (CAL-148) [%]	normalised response (CAL-51) [%]	normalised response (CAL-85-1) [%]	normalised response (DU-4475) [%]	normalised response (HCC1143) [%]	normalised response (HCC1599) [%]	normalised response (HCC1937) [%]	normalised response (HDQ-P1) [%]	normalised response (Hs578T) [%]	normalised response (MCF-10A) [%]	normalised response (MDA-MB-231) [%]	normalised response (MDA-MB-436) [%]	normalised response (MDA-MB-453) [%]	normalised response (MDA-MB-468) [%]	normalised response (MFM-223) [%]	normalised response (SK-BR-3) [%]
CC(=O)Nc1cccc(-n2c(=O)n(C3CC3)c(=O)c3c(Nc4ccc(I)cc4F)n(C)c(=O)c(C)c32)c1 [Trametinib] (0.025 nM)	111	94.9	106	111	115	102	99.2	95.5	101	96.5	98.6	99.5	96.3	104	100	109	99.4	100	110
CC(=O)Nc1cccc(-n2c(=O)n(C3CC3)c(=O)c3c(Nc4ccc(I)cc4F)n(C)c(=O)c(C)c32)c1 [Trametinib] (0.25 nM)	109	92.7	102	111	122	98.6	96.3	99.1	99.7	99.2	108	94.7	82.5	107	104	100	98.8	109	105
CC1=C(/C=C/C(C)=C/C=C/C(C)=C/C(=O)O)C(C)(C)CCC1 [Tretinoin] (1 nM)	102	104	98.7	102	102	98.5	101	99.5	92	106	98.7	102	105	101	107	97.1	102	99.2	107
CC1=C(/C=C/C(C)=C/C=C/C(C)=C/C(=O)O)C(C)(C)CCC1 [Tretinoin] (10 nM)	96.6	96.9	93.2	97.8	81	100	98.5	95.8	102	98	94.4	97.7	83.7	101	94.1	94.7	97.7	103	97
COc1cc2c(NC3CCN(C(C)C)CC3)nc(C3CCCCC3)nc2cc1OCCCN1CCCC1 [UNC0638] (1 nM)	91.1	103	104	86.8	117	97.4	88.9	94.6	76.7	95.3	103	99.7	84.2	93.3	90	95.6	90.5	87.1	90.8
COc1cc2c(NC3CCN(C(C)C)CC3)nc(C3CCCCC3)nc2cc1OCCCN1CCCC1 [UNC0638] (10 nM)	94.2	98.4	98	90.8	116	93.3	90.4	102	82.1	96.6	95.6	99.7	83	92.5	94.8	85.3	88.2	88	85.9
Oc1ncc(N(CCCl)CCCl)c(O)n1 [Uracil mustard] (1 nM)	105	89.4	98.6	101	115	94.2	95.6	102	105	103	98.8	99.7	105	97.2	95.8	105	107	101	99.7
CCCCC(=O)OCC(=O)[C@]1(O)Cc2c(O)c3c(c(O)c2[C@@H](O[C@H]2C[C@H](NC(=O)C(F)(F)F)[C@H](O)[C@H](C)O2)C1)C(=O)c1c(OC)cccc1C3=O [Valrubicin] (0.5 nM)	104	97.1	95.2	94	87.8	98.2	99.8	102	97.2	98.3	101	96	111	99.6	98.4	94.2	99.1	102	97.9
CCCS(=O)(=O)Nc1ccc(F)c(C(=O)c2c[nH]c3ncc(-c4ccc(Cl)cc4)cc23)c1F [Vemurafenib] (1 nM)	97.2	95	92.4	84.2	92.5	98	96.7	85.1	95.6	91.5	89.6	95.3	82.1	95.9	88	83.4	95	88	86.9
CCCS(=O)(=O)Nc1ccc(F)c(C(=O)c2c[nH]c3ncc(-c4ccc(Cl)cc4)cc23)c1F [Vemurafenib] (10 nM)	95.5	91.2	95.2	87.8	109	90.9	93.2	97.6	99.6	98.8	94.9	95.8	89.2	91.3	88.7	87.6	88.2	89.8	71.8
